The values that follow come from US4659712A, “Fodder additive and a process for the preparation” (Richter Gedeon Vegyeszeti Gyar Rt., priority 1984, dated 1987).

A short description of data set [1]: Quinoxaline-2-carboxylic acid (Carbadox metabolite) residue in pig muscle (ham, chop), liver and kidney after flumecinol treatment. It is filed as in vivo, pigs. On the procedure: Tests were carried out at a large-scale pig farm, where 25 mg/kg of body weight of Carbadox admixed with the fodder of the pigs were administered to pigs having a live weight of 40 kg. From a population fed with this fodder 27 animals, each weighing exactly 40 kg, were selected, by weighing them separately. The selected animals were railed off in a place suitable for further tests. From this time on (zero time) the animals were given the same fodder as before, except Carbadox.
The 27 animals were divided into three groups as follows:
Group I: 12 animals (ser. Nos. from 1 to 12) slaughtering: three animals each when starting the experiment (0 time) and on the 1st, 5th and 15th days (positive control group) Group II: 9 amimals (ser. Nos. from 13 to 21) treatment: a single 40 mg/kg of body weight dose of flumecinol at zero time. slaughtering: three animals each on the 1st, 5th and 15th days (group treated with a single dose of flumecinol) Group III: 6 animals (ser. Nos. 22 to 27) treatment: 40 mg/kg of body weight of flumecinol for three days, at zero time and on the 1st and 2nd day slaughtering: three animals each on the 5th and 15th days (group treated with flumecinol three times) Flumecinol is available as a micropellet containing 19.02% of active ingredient. From this and a 1% starch hydrolysate a suspension is prepared, containing 40 mg of flumecinol per 1 ml (dose used for one kg of body weight). The active compound was administered 8 o'clock in the morning, without previous fasting, through a stomach tube, in order to ensure exact conditions for the experiments. The animals were killed and samples were taken from 8 to 11 o'clock in the morning, whereupon the samples were transported into the analytical laboratory within one hour, under cooling.
Quinoxaline-2-carboxylic acid (a metabolite of Carbadox) was determined in the chop, liver and kidney tissues of three animals from each group. Each muscle and liver sample was subjected to organoleptic examination also (boiling test).
The quantity of quinoxaline-2-carboxylic acid was determined essentially following the method described in the USDA Chemistry Laboratory Guidebook (5007 Determination of Carbadox):
Following the alkaline hydrolysis of the muscle, liver and kidney samples, the hydrolysates were strongly acidified and the quinoxaline-2-carboxylic acid was extracted with ethyl acetate. The pH of the ethyl acetate extract was adjusted to 6 with a citric acid buffer, whereupon the mixture was extracted with benzene. In the next step the acid was esterified with a mixture of n-propanol and sulfuric acid, to yield propyl quinoxaline-2-carboxylate. The quantity of the latter compound was determined (after purification by thin layer chromatography) by gas chromatography. This cumbersome test procedure was always performed together with a […] control sample to which a known amount (0.2 μg-1.0 μg) of quinoxaline-2-carboxylic acid (standard) was added. The percentage of the active ingredient recovered from this sample was taken into account when calculating the residual active substance amount. In this way the error of the process was eliminated.
The test results, if not otherwise indicated, are given in μg/kg.
The quantity of quinoxaline-2-carboxylic acid in the above-specified slaughtering times is shownn in Table 1. The tests were carried out on three animals and Table 1 contains the results obtained on the individual animals. The results were also statistically evaluated for the various sorts of tissues, although in this specific case this was not really necessary, since according to the valid prescriptions the products of animal origin should not contain Carbadox at all, i.e. the limit is zero. Therefore, we considered it more important to determine when the animal tissues become entirely Carbadox-free, than to observe the differences among the tissues of the various groups of animals in the time when they were killed.

In data set [2] the test system is E.coli infections and dysentery. Conditions: pigs; cited from earlier work.
For data set [3] the following is noted: administered as a fodder additive; cited from earlier work.
For data set [4] the following is noted: in vivo; cited from earlier work.

On to `COC(=O)NN=Cc1c[n+]([O-])c2ccccc2[n+]1[O-]` [Carbadox, 3-(2-quinoxalinylmethylene)-carbazic acid methyl ester N,N'-dioxide, reference compound], for which the “amount of residue in liver, change from initial” value in data set [1] (control group, 1st day) was “further increased on the 1st day”. Further, in data set [1] (control group, 15th day), the “level of residue in liver” value is “a level identical with the initial concentration in the muscles”. The “amount of the Carbadox metabolite residue in the liver vs. muscle” value in data set [1] (liver) is recorded as “one order of magnitude higher than in the muscle tissue”. For the same compound, the “potency in the treatment and prophylaxis of E.coli infections and dysentery” value in data set [2] is recorded as “very potent”. The “increasing the weight gain of animals” value in data set [3] is “one of the most efficious agents employed for increasing the weight gain of animals”. Also, the “elimination rate from the animals” value in data set [4] is recorded as “eliminated from the animals at a very low rate”.
As for `O=C(O)c1cnc2ccccc2n1` [quinoxaline-2-carboxylic acid, Quinoxaline-2-carboxylic acid], the “quinoxaline-2-carboxylic acid in muscle, kidney and liver tissues” value in data set [1] (Carbadox, no flumecinol, 15th day following termination) is “significant amount”. The “quinoxaline-2-carboxylic acid in the kidney” value in data set [1] (control group, 15th day) was “detected in the kidney even on the 15th day”. The “presence in muscle tissue” value in data set [1] (positive control, 15 days after termination of Carbadox administration) is given as “present in the muscle tissue even 15 days after the termination of Carbadox administration, in a significant amount”. For the same compound, the “residual concentration, chop vs. ham” value in data set [1] (positive control, muscle tissue) is reported as “always higher in the chop than in the ham muscle”.
